In one test the target is hCA I (Homo sapiens, UniProt P00915). The experiment in a line: biochemical.
A further test deals with hCA II (Homo sapiens, UniProt P00918). The experiment in a line: biochemical.

Chain of hCA I (P00915 whole entry): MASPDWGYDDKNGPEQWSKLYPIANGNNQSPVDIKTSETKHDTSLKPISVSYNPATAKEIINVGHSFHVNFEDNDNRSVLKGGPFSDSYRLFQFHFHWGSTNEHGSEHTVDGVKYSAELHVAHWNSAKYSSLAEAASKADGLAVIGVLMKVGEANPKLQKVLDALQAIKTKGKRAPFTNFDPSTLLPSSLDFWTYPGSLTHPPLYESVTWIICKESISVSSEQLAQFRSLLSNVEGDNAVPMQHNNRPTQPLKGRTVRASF

With `NS(=O)(=O)c1ccc(N2N=C(c3ccccc3)CC2c2ccccc2)cc1` (stereo not shown) [Compound 9, 4-(3,5-Diphenyl-4,5-dihydro-1H-pyrazol-1-yl)benzenesulfonamide], at hCA I, inhibition was half-maximal at 555 nM (IC50) and the Ki stood at 506 ± 133 nM. Moreover, on hCA II, the half-inhibitory concentration (IC50) amounted to 586 nM and the affinity, expressed as Ki, was 625 ± 168 nM.

At hCA I, `COc1ccc(C2=NN(c3ccc(S(N)(=O)=O)cc3)C(c3ccccc3)C2)cc1` (stereo not shown) [Compound 11, 4-(3-(4-Methoxyphenyl)-5-phenyl-4,5-dihydro-1H-pyrazol-1-yl)benzenesulfonamide] returned an IC50 of 484 nM and a Ki of 533 ± 188 nM. At hCA II, this compound registered an IC50 of 486 nM and a Ki of 469 ± 63 nM.

Consider `NS(=O)(=O)c1ccc(N2N=C(c3ccc(Cl)cc3)CC2c2ccccc2)cc1` (stereo not shown) [Compound 12, 4-(3-(4-Chlorophenyl)-5-phenyl-4,5-dihydro-1H-pyrazol-1-yl)benzenesulfonamide], for which, on hCA I, the IC50 was 403 nM and affinity was put at a Ki of 378 ± 114 nM. On hCA II, this compound displayed a half-maximal inhibitory concentration (IC50) of 559 nM and a Ki of 521 ± 132 nM.

As to `NS(=O)(=O)c1ccc(N2N=C(c3ccc(F)cc3)CC2c2ccccc2)cc1` (stereo not shown) [Compound 13, 4-(3-(4-Fluorophenyl)-5-phenyl-4,5-dihydro-1H-pyrazol-1-yl)benzenesulfonamide], at hCA I, inhibition was half-maximal at 493 nM (IC50) and the affinity, expressed as Ki, was 462 ± 134 nM. Further, at hCA II, it took 536 nM to reach half-maximal inhibition (IC50) and the inhibition constant (Ki) was found to be 587 ± 188 nM.

As for `NS(=O)(=O)c1ccc(N2N=C(c3ccc(Br)cc3)CC2c2ccccc2)cc1` (stereo not shown) [Compound 14, 4-(3-(4-Bromophenyl)-5-phenyl-4,5-dihydro-1H-pyrazol-1-yl)benzenesulfonamide], at hCA I, 405 nM corresponded to half-maximal inhibition (IC50) and the inhibitory constant (Ki) was 317 ± 9.6 nM. Also, on hCA II, half-maximal inhibition (IC50) required 470 nM and the Ki was 412 ± 115 nM.

`NS(=O)(=O)c1ccc(N2N=C(c3ccc([N+](=O)[O-])cc3)CC2c2ccccc2)cc1` (stereo not shown) [Compound 15, 4-(3-(4-Nitrophenyl)-5-phenyl-4,5-dihydro-1H-pyrazol-1-yl)benzenesulfonamide]: on hCA I, the half-inhibitory concentration (IC50) worked out at 416 nM and the inhibition constant Ki was 326 ± 29.4 nM. Further, at hCA II, the midpoint of inhibition, the IC50, lay at 534 nM and the affinity, expressed as Ki, was 430 ± 87.3 nM.

`NS(=O)(=O)c1ccc(N2N=C(c3ccc(O)cc3)CC2c2ccccc2)cc1` (stereo not shown) [Compound 16, 4-(3-(4-Hydroxyphenyl)-5-phenyl-4,5-dihydro-1H-pyrazol-1-yl)benzenesulfonamide]: on hCA I, the 50% inhibitory concentration (IC50) worked out at 528 nM and the Ki is 472 ± 57.5 nM. At hCA II, this compound registered an IC50 of 459 nM and an inhibition constant Ki of 592 ± 134 nM.

Values taken from PMC6010057, “Synthesis, carbonic anhydrase I and II inhibition studies of the 1,3,5-trisubstituted-pyrazolines” (Journal of Enzyme Inhibition and Medicinal Chemistry, 2016).
